According to the NIST ThermoML archive (doi:10.1016/j.fluid.2018.05.028):

Test: xn = mol fraction of the nth substance listed
Conditions: 101 kPa, Liquid; for viscosity: Concentric cylinders viscometry; for speed of sound: Single path-length method; for mass density: Vibrating tube method

CCCCCCCCCCCCCCCC [hexadecane] + CCCCO
Conditions	mass density [kg/m3]	speed of sound [m/s]	viscosity [mPa·s]
293.15 K, x2 = 0	773.35	1357.4	3.408
293.15 K, x2 = 0.1	773.9	1349.6	3.204
293.15 K, x2 = 0.2	774.92	1343.3	3.109
293.15 K, x2 = 0.3	776.24	1336.8	2.998
293.15 K, x2 = 0.4	777.91	1329.7	2.935
293.15 K, x2 = 0.5	780.07	1322	2.9
293.15 K, x2 = 0.6	782.88	1313.4	2.854
293.15 K, x2 = 0.7	786.53	1303.1	2.874
293.15 K, x2 = 0.8	791.49	1290.7	2.875
293.15 K, x2 = 0.9	798.54	1275.4	2.856
298.15 K, x2 = 0	769.87	1338.5	3.035
298.15 K, x2 = 0.1	770.35	1330.6	2.852
298.15 K, x2 = 0.2	771.34	1324.4	2.77
298.15 K, x2 = 0.3	772.63	1317.9	2.675
298.15 K, x2 = 0.4	774.28	1310.8	2.616
298.15 K, x2 = 0.5	776.41	1303.2	2.578
298.15 K, x2 = 0.6	779.18	1294.7	2.535
298.15 K, x2 = 0.7	782.81	1284.7	2.543
298.15 K, x2 = 0.8	787.73	1272.7	2.541
298.15 K, x2 = 0.9	794.77	1257.8	2.52
303.15 K, x2 = 0	766.4	1319.8	2.708
303.15 K, x2 = 0.1	766.82	1311.8	2.544
303.15 K, x2 = 0.2	767.77	1305.6	2.471
303.15 K, x2 = 0.3	769.03	1299.1	2.387
303.15 K, x2 = 0.4	770.64	1292.1	2.332
303.15 K, x2 = 0.5	772.74	1284.6	2.294
303.15 K, x2 = 0.6	775.47	1276.2	2.249
303.15 K, x2 = 0.7	779.07	1266.4	2.246
303.15 K, x2 = 0.8	783.97	1254.7	2.244
303.15 K, x2 = 0.9	790.97	1240.2	2.219
308.15 K, x2 = 0	762.95	1301.3	2.432
308.15 K, x2 = 0.1	763.28	1293.2	2.283
308.15 K, x2 = 0.2	764.19	1287	2.217
308.15 K, x2 = 0.3	765.42	1280.5	2.144
308.15 K, x2 = 0.4	766.99	1273.5	2.092
308.15 K, x2 = 0.5	769.05	1266.1	2.053
308.15 K, x2 = 0.6	771.75	1257.8	2.012
308.15 K, x2 = 0.7	775.31	1248.2	2.001
308.15 K, x2 = 0.8	780.17	1236.8	1.992
308.15 K, x2 = 0.9	787.14	1222.8	1.967
313.15 K, x2 = 0	759.49	1283.1	2.199
313.15 K, x2 = 0.1	759.74	1274.9	2.064
313.15 K, x2 = 0.2	760.61	1268.5	2.004
313.15 K, x2 = 0.3	761.8	1262.1	1.939
313.15 K, x2 = 0.4	763.33	1255.1	1.89
313.15 K, x2 = 0.5	765.35	1247.7	1.851
313.15 K, x2 = 0.6	768.01	1239.6	1.811
313.15 K, x2 = 0.7	771.52	1230.1	1.794
313.15 K, x2 = 0.8	776.34	1219	1.781
313.15 K, x2 = 0.9	783.27	1205.5	1.755
318.15 K, x2 = 0	756.05	1265	1.996
318.15 K, x2 = 0.1	756.2	1256.7	1.871
318.15 K, x2 = 0.2	757.02	1250.3	1.815
318.15 K, x2 = 0.3	758.17	1243.8	1.756
318.15 K, x2 = 0.4	759.66	1236.9	1.709
318.15 K, x2 = 0.5	761.63	1229.5	1.67
318.15 K, x2 = 0.6	764.24	1221.4	1.631
318.15 K, x2 = 0.7	767.71	1212.1	1.613
318.15 K, x2 = 0.8	772.49	1201.3	1.593
318.15 K, x2 = 0.9	779.38	1188.2	1.564
323.15 K, x2 = 0	752.61	1247.1	1.823
323.15 K, x2 = 0.1	752.66	1238.6	1.707
323.15 K, x2 = 0.2	753.42	1232.1	1.654
323.15 K, x2 = 0.3	754.53	1225.7	1.6
323.15 K, x2 = 0.4	755.97	1218.8	1.556
323.15 K, x2 = 0.5	757.89	1211.4	1.517
323.15 K, x2 = 0.6	760.45	1203.4	1.479
323.15 K, x2 = 0.7	763.86	1194.2	1.452
323.15 K, x2 = 0.8	768.59	1183.6	1.435
323.15 K, x2 = 0.9	775.44	1171	1.404
328.15 K, x2 = 0	749.18	1229.3	1.671
328.15 K, x2 = 0.1	749.13	1220.8	1.563
328.15 K, x2 = 0.2	749.82	1214.2	1.514
328.15 K, x2 = 0.3	750.87	1207.7	1.464
328.15 K, x2 = 0.4	752.26	1200.8	1.422
328.15 K, x2 = 0.5	754.13	1193.4	1.383
328.15 K, x2 = 0.6	756.63	1185.4	1.346
328.15 K, x2 = 0.7	759.99	1176.4	1.317
328.15 K, x2 = 0.8	764.66	1166	1.297
328.15 K, x2 = 0.9	771.46	1153.8	1.264
333.15 K, x2 = 0	745.74	1211.8	1.537
333.15 K, x2 = 0.1	745.58	1203.1	1.437
333.15 K, x2 = 0.2	746.2	1196.3	1.389
333.15 K, x2 = 0.3	747.19	1189.8	1.343
333.15 K, x2 = 0.4	748.53	1182.9	1.303
333.15 K, x2 = 0.5	750.34	1175.6	1.266
333.15 K, x2 = 0.6	752.78	1167.6	1.23
333.15 K, x2 = 0.7	756.08	1158.7	1.199
333.15 K, x2 = 0.8	760.69	1148.5	1.177
333.15 K, x2 = 0.9	767.42	1136.6	1.143
338.15 K, x2 = 0	742.31	1194.4	1.421
338.15 K, x2 = 0.1	742.04	1185.5	1.328
338.15 K, x2 = 0.2	742.57	1178.7	1.282
338.15 K, x2 = 0.3	743.51	1172.1	1.238
338.15 K, x2 = 0.4	744.78	1165.2	1.2
338.15 K, x2 = 0.5	746.53	1157.9	1.163
338.15 K, x2 = 0.6	748.9	1149.9	1.127
338.15 K, x2 = 0.7	752.13	1141	1.095
338.15 K, x2 = 0.8	756.66	1131	1.071
338.15 K, x2 = 0.9	763.33	1119.5	1.036
343.15 K, x2 = 0	738.88	1177.5	1.316
343.15 K, x2 = 0.1	738.5	1168.3	1.23
343.15 K, x2 = 0.2	738.94	1161.2	1.185
343.15 K, x2 = 0.3	739.8	1154.6	1.144
343.15 K, x2 = 0.4	741.01	1147.7	1.107
343.15 K, x2 = 0.5	742.68	1140.3	1.071
343.15 K, x2 = 0.6	744.98	1132.3	1.037
343.15 K, x2 = 0.7	748.13	1123.5	1.004
343.15 K, x2 = 0.8	752.59	1113.6	0.9782
343.15 K, x2 = 0.9	759.19	1102.4	0.9425
